From PMC5584254, “Identification of novel small molecule Beclin 1 mimetics activating autophagy” (Oncotarget, 2017) come the findings set out here.

Bounds are passed on as bounds.

For data set [1], the system named is DU145. As to the kind of experiment: MTT-based cytotoxicity assay, DU145. Particulars: Homo sapiens, DU-145, averages of at least two independent experiments, read-out: Cytotoxicity in different cell lines (IC50, μM) DU145. From the text:
(§1) Human prostate cancer cell lines PC-3 and DU145, were purchased from American Type Culture Collection (ATCC) and used within 50 passages. PC-3a is a derivative of PC-3 that is resistant to chemo/radiotherapy, established in our lab and confirmed by genotyping. All cells were maintained in DMEM (Mediatech, Manassas, VA) supplemented with 10% fetal bovine serum (FBS) (Sigma-Aldrich, St. Louis, MO), 1% Glutamine (Mediatech, Manassas, VA), 1% antibiotics (Mediatech, Manassas, VA). Compounds for primary FP-based HTS screening were from Prestwick, Microsource, University of Kansas Center of Excellence in Chemical Methodologies & Library Development (KU CMLD, Lawrence, KS), and Chembridge libraries. Compounds for MTT and SPR validation experiment were purchased from Microsource (Gaylordsville, CT) and Hit2lead Company (San Diego, CA). Acridine analogues, compound 1–6, were from our in-house library (provided by Specialized Chemistry Center, University of Kansas, Lawrence, KS); compound 7–17 were synthesized as described in supplementary information. (–)-Gossypol was isolated from racemic gossypol as we previously described. ABT-263 and DMSO were purchased from Sigma. MTT-based cytotoxicity assay and western blot analysis was carried out according to our previous publications. The primary antibodies used were LC3B (#2775) (Cell signaling Technology, Danvers, MA) and β-actin (A5441) (Sigma).
Background: Formazan colour is commonly taken as a measure of viable cells.

In data set [2] the test system is PC-3a. The data set can be described thus: MTT-based cytotoxicity assay, PC-3a. Particulars: Homo sapiens, averages of at least two independent experiments, read-out: Cytotoxicity in different cell lines (IC50, μM) PC-3a.
Excerpt: as §1

The subject of data set [3] is PC-3. The data set can be described thus: MTT-based cytotoxicity assay, PC-3. To be noted: Homo sapiens, averages of at least two independent experiments, read-out: Cytotoxicity in different cell lines (IC50, μM) PC-3.
Excerpt: as §1

Data set [4] concerns DU145, PC-3a and PC-3 prostate cancer cell lines. As to the kind of experiment: MTT-based cytotoxicity assay, all three prostate cancer cell lines. Set-up: species or system Human. Particulars: for IC50: Homo sapiens, DU-145, MTT, DU145, PC-3a and PC-3, read-out: cytotoxicity IC50, stated for all three cell lines together.
Excerpt: We also tested the cytotoxicity of the 17 compounds in human prostate cancer cell lines by MTT assay (Table 1).
as §1, with “PC-3a is a derivative of PC-3 that is resistant to chemo/radiotherapy, established in our lab and confirmed by genotyping.” left out, “Acridine analogues, compound 1–6, were from our in-house library (provided by Specialized Chemistry Center, University of Kansas, Lawrence, KS); compound 7–17 were synthesized as described in supplementary information.” left out

Data set [5] has as its target T1, Bcl-xL protein (Homo sapiens, UniProt Q07817).
T1 construct: made in house
The data set can be described thus: Surface plasmon resonance assay, immobilized Bcl-xL. To be noted: for binding level to Bcl-xL protein in SPR: 10 μM compound, Bcl-xL immobilized 10000 RU. The format is binding. The procedure: (§2) The surface plasmon resonance experiments were performed using a Biacore 3000 (GE Healthcare Pittsburgh, PA) equipped with a research-grade CM5 sensor chip. The ligand (Bcl-xL) was immobilized using amine-coupling chemistry. The surfaces of flow cells on a Biacore sensor chip CM5 were activated for 7 min with a 1:1 mixture of 0.1 M NHS (N-hydroxysuccinimide) and 0.1 M EDC (3-(N,N-dimethylamino) propyl-N-ethylcarbodiimide) at a flow rate of 5 μL/min. The ligand (Bcl-xL) at a concentration of 180 μg/mL in 10 mM sodium acetate, pH 4.5, was immobilized at a density of about 10000 RU on flow cell 2; the ligand (SUMO-Bcl-2, 37.5 kDa, > 90% pure based on SDS–PAGE) at a concentration of 44 μg/ml in 10 mM sodium acetate, pH 4.5, was immobilized at a density of 10000 RU on flow cell 3; flow cell 1 was left blank to serve as a reference surface. All the surfaces were blocked with a 7 min injection of 1 M ethanolamine, pH 8.0.
(§3) For kinetic analysis, a concentration series of analyte were injected over the flow cells at a flow rate of 60 μL/min at 20 °C. The complex was allowed to associate and dissociate for 120 and 180 s, respectively. For binding studies, analyte (or test compound) was injected over the two flow cells in duplicate at indicated concentration at a flow rate of 60 μL/min at 20 °C. The running buffer consisted of 20 mM HEPES, 150 mM NaCl, 3 mM EDTA, 1 mM DTT, 0.05% P20, 5% DMSO, pH 7.4. The complex was allowed to associate and dissociate for 120 and 180 s, respectively. The buffer samples containing a range of 4–6% DMSO were injected at the beginning, used for solvent correction. The surfaces were regenerated between binding cycles with a 5 s injection of 5 mM NaOH for compounds and 10 mM Glycine pH 2.5 for 20-mer.
All measurements were taken with flow cell 1 as a reference (i.e. sensorgram depicts “2–1 correction”) and corrected for DMSO bulk differences via the calibration curves. To obtain kinetic rate constants (Ka and Kd), corrected response data were fit to a simple 1:1 interaction model using local fit (includes correction for mass transport limitations) available within Biaevaluation 3.1 software or Scrubber2 software. The equilibrium dissociation constant (KD) was determined by Kd/Ka.
In general terms: Surface plasmon resonance follows binding to a sensor surface in real time, without labels.

The target in data set [6] is Bcl-2 protein (SUMO-Bcl-2) (Homo sapiens, UniProt P10415). As to the kind of experiment: Surface plasmon resonance assay, immobilized Bcl-2. The format is binding. As to the method: as §2, §3
All measurements were taken with flow cell 1 as a reference (i.e. sensorgram depicts “2–1 correction”) and corrected for DMSO bulk differences via the calibration curves. […] The equilibrium dissociation constant (KD) was determined by Kd/Ka.

The subject of data set [7] is PC-3 and PC-3a prostate cancer cells. As to the kind of experiment: Western blot of autophagy markers (LC3 conversion, P62). Type of data set: cell-based, Human. As to the method: Figure 5 Acridine compounds induce autophagy in prostate cancer cells (A) LC3-II conversion in western blot analysis indicated the activity of autophagy. Cells were treated with DMSO or compounds for 24 h, and then lysed and processed for western blot analysis of LC3. (–)G and EBSS were used as positive controls. […] Yellow puncta indicate autophagosome (overlay of red and green fluorescence); red puncta indicate autolysosome (due to green fluorescence quenching at the acidic condition). Cells expressing RFP-GFP-LC3 were treated with compounds A13, A15 or A21 at indicated concentration for 24 h.
Figure 8 Acridine compounds induce autophagy in PC-3 and PC-3a cancer cells LC3-II conversion in western blot analysis indicated the activity of autophagy. Cells were treated with DMSO or compounds for 24 h, and then lysed and processed for western blot analysis of LC3. (–)G and EBSS were used as positive controls.
as §1

Sequence of Bcl-2 protein (SUMO-Bcl-2) (P10415 1-211 limits assumed): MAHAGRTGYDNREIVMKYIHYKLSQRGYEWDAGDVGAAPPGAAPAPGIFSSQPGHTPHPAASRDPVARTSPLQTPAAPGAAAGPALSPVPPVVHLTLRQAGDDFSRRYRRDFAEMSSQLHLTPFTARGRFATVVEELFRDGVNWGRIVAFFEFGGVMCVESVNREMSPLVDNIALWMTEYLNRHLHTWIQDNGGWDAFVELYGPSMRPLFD
T1 sequence (Q07817 whole entry): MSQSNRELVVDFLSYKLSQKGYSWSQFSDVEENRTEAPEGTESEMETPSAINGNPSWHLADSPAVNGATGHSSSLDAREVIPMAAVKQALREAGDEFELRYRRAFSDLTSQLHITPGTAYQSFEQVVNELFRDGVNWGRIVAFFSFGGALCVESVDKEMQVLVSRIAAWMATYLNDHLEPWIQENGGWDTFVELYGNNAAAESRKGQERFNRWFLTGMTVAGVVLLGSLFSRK

`CCN(CC)CCCCNc1c2ccc(Cl)cc2nc2ccc(OC)cc12` [Compound 7]: the IC50 (usually the concentration that inhibits the measured activity by half) in data set [1] is 0.27 ± 0.13 µM; in data set [2] it was 0.1 ± 0.05 µM; in data set [3] it was 0.11 ± 0.07 µM; in data set [4], < 0.5 µM. The “fold difference in IC50 value, PC-3 and PC-3a versus DU145” value in data set [4] (higher cytotoxicity in PC-3 and PC-3a than in DU145) is reported as 3–5 fold. Also, the kon in data set [5] (SPR kinetic analysis, 1:1 model, read-out: association rate (Ka) to Bcl-xL) worked out at 29600 M⁻¹ s⁻¹; in data set [6] (SPR kinetic analysis, 1:1 model, read-out: association rate (Ka) to Bcl-2), 3200 M⁻¹ s⁻¹. Besides, the koff in data set [5] (SPR kinetic analysis, 1:1 model, read-out: dissociation rate (Kd) from Bcl-xL) came to 0.193 s⁻¹; in data set [6] (SPR kinetic analysis, 1:1 model, read-out: dissociation rate (Kd) from Bcl-2) it was 0.51 s⁻¹. For the same compound, the “binding level to Bcl-xL protein in SPR” value in data set [5] (SPR) is “higher binding level than original hit A21”. Also, the Kd (in general, a measure of binding affinity in units of concentration) came to 6.5 µM in data set [5] (SPR, KD = Kd/Ka, read-out: equilibrium dissociation constant KD to immobilized Bcl-xL) and 160 µM in data set [6] (SPR, KD = Kd/Ka, read-out: equilibrium dissociation constant KD to immobilized Bcl-2). In addition, the “selectivity for Bcl-xL protein over Bcl-2” value in data set [5] (from SPR KD values) was “about 25 fold”. Moreover, the “SQSTM1/P62 turnover” value in data set [7] is listed as “degradation of P62”. For the same compound, the “LC3-I to LC3-II conversion” value in data set [7] (24 h treatment) is on record as “triggered the conversion of LC3-I to LC3-II”.

Regarding `COc1ccc2nc3cc(Cl)ccc3c(N3CCN(C)CC3)c2c1` [Compound 9], the melting point – broadly, the temperature, or range, at which the solid turns liquid – was in the range of 135 to 138 °C. Further, the IC50 in data set [1] came to 6.24 ± 1.86 µM. Also, the IC50 in data set [2] is 3.51 ± 1.15 µM. For the same compound, the IC50 in data set [3] is 2.93 ± 1.18 µM.

Consider `COc1ccc2nc3cc(Cl)ccc3c(-c3ccc([N+](=O)[O-])cc3)c2c1` [Compound 14], for which the melting point lay within 207 to 211 °C. Besides, in data set [1], the IC50 was > 100 µM. Also, the IC50 in data set [2] was > 100 µM. In data set [3], the IC50 is > 100 µM. Further, the 50% inhibitory concentration (IC50) in data set [4] is > 100 µM. Besides, the “binding level to Bcl-xL protein in SPR” value in data set [5] (SPR) is “almost no binding”.
